For assay [1], the target named is TrkB (Homo sapiens, UniProt Q16620). Put plainly: PathHunter eXpress TrkB Functional Assay (phosphorylation of TrkB). It counts as cell-based. The note with it: maximum signal induced by BDNF = 100%; stimulation for 3 hours. The procedure, abridged:
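PathHunter TrkB cells, cultured 48 h, were stimulated 3 h with peptide or BDNF, then detection reagent added for 60 min at room temperature; luminescence read. Activity (%) scaled from unstimulated (0%) to maximal BDNF signal (100%); peptides tested over 0.006104-100 nM, 0.032-100 nM or 0.01-10 nM ranges.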

The target of assay [2] is T1, TrkB (CellSensor TrkB-NFAT-bla CHO-K1 Cell) (Homo sapiens, UniProt Q16620).
T1 construct: host or cells: CHO-K1 (CellSensor TrkB-NFAT-bla CHO-K1)
T1 sequence (Q16620 32-822): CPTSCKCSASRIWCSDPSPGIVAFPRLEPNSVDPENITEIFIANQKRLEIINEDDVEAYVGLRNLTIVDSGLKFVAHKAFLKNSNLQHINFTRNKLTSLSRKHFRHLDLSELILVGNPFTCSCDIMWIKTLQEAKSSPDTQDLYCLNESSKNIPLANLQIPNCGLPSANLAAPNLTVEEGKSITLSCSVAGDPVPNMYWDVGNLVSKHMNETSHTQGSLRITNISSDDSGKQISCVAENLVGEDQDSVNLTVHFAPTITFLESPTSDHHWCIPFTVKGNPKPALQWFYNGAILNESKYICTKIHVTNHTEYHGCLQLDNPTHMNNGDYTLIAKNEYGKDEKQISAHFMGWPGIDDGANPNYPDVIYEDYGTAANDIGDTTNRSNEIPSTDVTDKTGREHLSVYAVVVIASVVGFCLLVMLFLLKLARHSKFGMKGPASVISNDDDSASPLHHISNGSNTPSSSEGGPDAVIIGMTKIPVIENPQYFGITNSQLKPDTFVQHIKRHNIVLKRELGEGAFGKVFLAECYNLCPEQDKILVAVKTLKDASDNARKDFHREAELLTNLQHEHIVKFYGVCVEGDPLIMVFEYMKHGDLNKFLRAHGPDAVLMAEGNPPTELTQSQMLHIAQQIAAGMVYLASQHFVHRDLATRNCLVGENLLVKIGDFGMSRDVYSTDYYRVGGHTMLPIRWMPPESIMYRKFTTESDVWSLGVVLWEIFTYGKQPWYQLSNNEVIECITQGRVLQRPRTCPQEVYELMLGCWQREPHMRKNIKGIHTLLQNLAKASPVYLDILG
Put plainly: pERK1/2 AlphaLISA assay (phosphorylation of ERK) for TrkB agonist activity. In kind it is cell-based. The note with it: class = peptide concentration giving 50% or more activity; BDNF maximum signal = 100%, no stimulation = 0%; 15 minutes of stimulation. The method in brief: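 TrkB-NFAT-bla CHO-K1 cells were starved 4 h in 0.1% BSA medium and then stimulated 15 min with peptide or BDNF; p-ERK1/2 (Thr202/Tyr204) in the lysate was read by AlphaLISA SureFire. Activity % was scaled to the BDNF maximum (100%) and no stimulation (0%); A = ≥50% at 1 nM, B = ≥50% at 10 nM; curves were 8 points, 4-fold dilutions from 100 nM.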
On the technique in general: Alpha assays give light when donor and acceptor beads are brought close together.

*1 amine or outer side, *2 acyl side, *3 side chain or, on linkers, in order; H or OH if unused. Where a SMILES comes first, the peptide text is derived from it. Bridges are numbered along the chain shown (N, C = ends). Roman numbers before positions name the chains, in order. [ ]: non-standard residue; d: D form. CO(CH2CH2O)13CH2CH2CO = O=C(CCOCCOCCOCCOCCOCCOCCOCCOCCOCCOCCOCCOCCOCCC(=O)[*:2])[*:1]; 3Pal = N[C@@H](Cc1cccnc1)C(=O)O

TrkB, sequence (Q16620 32-822): as the sequence (Q16620 32-822) above

For `CC(C)[C@@H]1NC(=O)[C@H](Cc2cccnc2)NC(=O)[C@H](CCC(=O)O)NC(=O)[C@H](CO)NC(=O)[C@H](Cc2ccc(O)cc2)NC(=O)[C@H]([C@@H](C)O)NC(=O)[C@@H]2CCCN2C(=O)[C@H](Cc2c[nH]c3ccccc23)NC(=O)[C@H](Cc2cccnc2)NC(=O)[C@H](Cc2ccc(O)cc2)NC(=O)[C@@H]2CCCN2C(=O)[C@H](CO)NC(=O)[C@H](Cc2ccccc2)NC(=O)CSC[C@@H](C(=O)NCC(=O)N[C@@H](CCCCNC(=O)CCOCCOCCOCCOCCOCCOCCOCCOCCOCCOCCOCCOCCOCCC(=O)NCCCC[C@H](NC(=O)CNC(=O)[C@@H]2CSCC(=O)N[C@@H](Cc3ccccc3)C(=O)N[C@@H](CO)C(=O)N3CCC[C@H]3C(=O)N[C@@H](Cc3ccc(O)cc3)C(=O)N[C@@H](Cc3cccnc3)C(=O)N[C@@H](Cc3c[nH]c4ccccc34)C(=O)N3CCC[C@H]3C(=O)N[C@@H]([C@@H](C)O)C(=O)N[C@@H](Cc3ccc(O)cc3)C(=O)N[C@@H](CO)C(=O)N[C@@H](CCC(=O)O)C(=O)N[C@@H](Cc3cccnc3)C(=O)N[C@@H](C(C)C)C(=O)N[C@@H](CCC(=O)O)C(=O)N2)C(N)=O)C(N)=O)NC(=O)[C@H](CCC(=O)O)NC1=O` [compound 48] (I: {CH2CO}-FSPY[3Pal]WPTYSE[3Pal]VECGK-NH2 / II: {CH2CO}-FSPY[3Pal]WPTYSE[3Pal]VECGK-NH2; linker I:17-II:17 via CO(CH2CH2O)13CH2CH2CO; thioether I:N-I:15, II:N-II:15), the Emax (usually the size of the effect at its maximum, as opposed to the concentration needed) in assay [1] was 102%. In assay [2], the “pERK (aLISA) Assay Results” value is recorded as “A (The peptide with 50% or more activity when 1 nM of the peptide was added was evaluated as A)”.

Turning to `CC(C)[C@@H]1NC(=O)[C@H](Cc2cccnc2)NC(=O)[C@H](CCC(=O)O)NC(=O)[C@H](CO)NC(=O)[C@H](Cc2ccc(O)cc2)NC(=O)[C@H]([C@@H](C)O)NC(=O)[C@@H]2CCCN2C(=O)[C@H](Cc2c[nH]c3ccccc23)NC(=O)[C@H](Cc2cccnc2)NC(=O)[C@H](Cc2ccc(O)cc2)NC(=O)[C@@H]2CCCN2C(=O)[C@H](CCC(=O)O)NC(=O)[C@H](Cc2ccccc2)NC(=O)CSC[C@@H](C(=O)NCC(=O)N[C@@H](CCCCNC(=O)CCOCCOCCOCCOCCOCCOCCOCCOCCOCCOCCOCCOCCOCCC(=O)NCCCC[C@H](NC(=O)CNC(=O)[C@@H]2CSCC(=O)N[C@@H](Cc3ccccc3)C(=O)N[C@@H](CCC(=O)O)C(=O)N3CCC[C@H]3C(=O)N[C@@H](Cc3ccc(O)cc3)C(=O)N[C@@H](Cc3cccnc3)C(=O)N[C@@H](Cc3c[nH]c4ccccc34)C(=O)N3CCC[C@H]3C(=O)N[C@@H]([C@@H](C)O)C(=O)N[C@@H](Cc3ccc(O)cc3)C(=O)N[C@@H](CO)C(=O)N[C@@H](CCC(=O)O)C(=O)N[C@@H](Cc3cccnc3)C(=O)N[C@@H](C(C)C)C(=O)N[C@@H](CCC(=O)O)C(=O)N2)C(N)=O)C(N)=O)NC(=O)[C@H](CCC(=O)O)NC1=O` [compound 56] (I: {CH2CO}-FEPY[3Pal]WPTYSE[3Pal]VECGK-NH2 / II: {CH2CO}-FEPY[3Pal]WPTYSE[3Pal]VECGK-NH2; linker I:17-II:17 via CO(CH2CH2O)13CH2CH2CO; thioether I:N-I:15, II:N-II:15), the Emax in assay [1] was 93%. The “pERK (aLISA) Assay Results” value in assay [2] is “A (The peptide with 50% or more activity when 1 nM of the peptide was added was evaluated as A)”.

Values taken from patent US20250282820A1, “PEPTIDE COMPLEX HAVING TRKB BINDING ACTIVITY” (PEPTIDREAM INC, priority 2022, published 2025).
